{"source": "patent US9107942B2", "about": "“Methods of diagnosing and treating fibrosis” (University of Rochester, priority 2008, dated 2015)", "key": {"YY1 expression [1]": {"tested_on": "YY1 expression", "experiment": "YY1 immunoblot in TGF-β-stimulated WI-38 cells pre-treated with NF-κB inhibitor", "assay_type": "cell-based, human", "details": "WI-38 cells pre-treated with 5 μM for one hour, then 10 ng/ml TGF-β in serum-free DMEM", "procedure": "FIG. 12A is a graph of the relative fold induction of YY1 mRNA expression in WI-38 cells transfected with a wild-type YY1 promoter construct (“YY1”). FIG. 12B is a graph of the relative fold induction of YY1 mRNA expression in WI-38 cells transfected with a mutant YY1 promoter contruct that has a disrupted NF-κB binding site (“mutant YY1”). In both cases, the cells were also transiently co-transfected with a vector control (“pSG5”) or 2.5 μg of NF-κB (“p65”) plasmid by electroporation, and then treated with PBS or 10 ng/ml of TGF-β for 24 hours. Data are presented with standard errors derived from at least three independent experiments performed in triplicate. ***P<0.001 (untreated pSG5 vs. untreated p65; TGF-β-treated pSG5 vs. TGF-β-treated p65). FIG. 12C is an immunoblot of WI-38 cells pre-treated with 5 μM of Bay 11-7085 (an NF-κB inhibitor) for one hour and then treated with 10 ng/ml of TGF-β for the indicated times in serum-free DMEM. Extracts from whole cells were immunoblotted with anti-YY1 or anti-β-actin antibody.\n(§1) Cells or lung tissues were solubilized in lysis buffer (50 mM Tris/HCl (pH 8.0), 150 mM NaCl, 0.1% SDS, 0.5% sodium deoxycholate, 0.02% Na3N, 1% Nonidet P40, 1 mM PMSF, and 2 μg/ml aprotinin). Protein concentrations were determined by a BCA assay. Protein samples (20 μg) were separated in 8-16% SDS/PAGE gels and transferred onto a nitrocellulose membrane. […]"}, "human tumor cells": {"tested_on": "human tumor cells", "details": "cited from earlier work"}, "lung fibroblasts": {"tested_on": "lung fibroblasts", "details": "cited from earlier work"}, "YY1 expression [2]": {"tested_on": "YY1 expression", "experiment": "YY1 expression in stimulated WI-38 lung fibroblasts (immunoblot, quantitative PCR)", "assay_type": "cell-based, human", "details": "WI-38 cells; for YY1 transcript levels: quantitative PCR", "procedure": "(§2) FIGS. 7A and 7B are immunoblots of human WI-38 cells (FIG. 7A) and mouse MLg2908 cells (FIG. 7B) treated with TGF-β. After serum starvation for 24 hours, cells were treated with 10 ng/ml of TGF-β for the indicated times in serum-free DMEM. Extracts from whole cells were subjected to immunoblot analysis with anti-YY1 or anti-β-actin antibody. FIGS. 7C and 7D are graphs showing the relative fold induction of YY-1 mRNA expression, detected by quantitative PCR, in WI-38 cells (FIG. 7C) and MLg2908 cells (FIG. 7D) treated with TGF-β. FIGS. 7E and 7F are graphs relating to the YY1 promoter activity in YY1-Luc-transfected WI-38 cells (FIG. 7E) and YY1-Luc-transfected MLg2908 cells (FIG. 7F) treated with PBS or TGF-β for 24 hours. The full-length YY1 promoter-luciferase reporter (YY1-LUC) was transfected into the cells by electroporation. Relative light units (RLU) were measured with a luminometer. Fold changes result from the RLU of stimulated cells divided by the RLU of non-stimulated cells. The data are presented with standard errors derived from at least three independent experiments performed in triplicate. *p<0.05 and **p<0.01 by the Student's t-test.\n(§3) FIGS. 9A and 9B are immunoblots of human WI-38 cells (FIG. 9A) and mouse MLg2908 cells (FIG. 9B) treated with TNF-α. After serum starvation for 24 hours, cells were treated with 10 ng/ml of TNF-α for the indicated times in serum-free DMEM. Extracts from whole cells were subjected to immunoblot analysis with anti-YY1 or anti-β-actin antibody. FIGS. 9C and 9D are graphs showing the relative fold induction of YY-1 mRNA expression, detected by quantitative PCR, in WI-38 cells (FIG. 9C) and MLg2908 cells (FIG. 9D) treated with TGF-β. FIGS. 9E and 9F are graphs relating to the YY1 promoter activity in YY1-Luc-transfected WI-38 cells (FIG. 9E) and YY1-Luc-transfected MLg2908 cells (FIG. 9F) treated with TNF-α for 8 hours. The full-length YY1 promoter-luciferase reporter (YY1-LUC) was transfected into the cells by electroporation. Relative light units (RLU) were measured with a luminometer. Fold changes result from the RLU of stimulated cells divided by the RLU of non-stimulated cells. The data are presented with standard errors derived from at least three independent experiments performed in triplicate. *p<0.05, **p<0.01, and ***p<0.001 by the Student's t-test.\nAfter serum starvation for 24 hours, cells were treated with 40 μg/ml of silica for the indicated time periods in serum-free DMEM. Extracts from WI-38 (FIG. 10A) or MLg2908 (FIG. 10B) cells were immunoblotted with anti-YY1 or anti-β-actin antibodies.\nFIG. 18 is an immunoblot showing YYI in WI-38 cells that were unstimulated (“Resting”) or treated with IL-1β ([…]). Immunoblots were performed on Day 1 and Day 2 using anti-YY1 and anti-GAPDH antibodies.\nTotal RNA from lung tissue and lung fibroblasts was extracted using TRIzol® reagent (Invitrogen). Then, 0.5-1 μg of total RNA was reverse-transcribed using oligo dT as a primer. Quantitative PCR was performed using an iQ5 Biorad device. Data were analyzed by the 2^−Δ(Δ/CT^) method and normalized to the expression of the GAPDH housekeeping gene.\nas §1"}, "B cells": {"tested_on": "B cells", "details": "cited from earlier work"}, "YY1 expression [3]": {"tested_on": "YY1 expression", "experiment": "YY1 immunoblot in MRC5 human adult fibroblasts", "assay_type": "cell-based", "details": "MRC5 cells, 10 ng/ml for 8 hours", "procedure": "(§4) FIG. 8A is an immunoblot of whole cell extracts from MRC5 cells treated with TGF-β for 8 hours. FIG. 8B is a graph of the relative light units of YY1-Lluc-transfected MRC5 cells treated with phosphate-buffered saline (“0”) or TGF-β (“10”) for 24 hours. The data are presented with standard errors derived from at least three independent experiments performed in triplicate. *p<0.05 by the Student's t-test.\n(§5) After serum starvation for 24 hours, MRC5 cells were treated with 10 ng/ml of TGF-β for 8 hours or 24 hours in serum-free DMEM. Extracts from whole cells treated with TGF-β for 8 hours were subjected to immunoblot analysis with anti-YY1 or anti-β-actin antibody. […] MRC5 cells transfected with the full-length YY1 promoter-luciferase reporter (YY1-LUC) by electroporation were treated with PBS or TGFβ for 24 hours, and the relative light units (RLU) were measured with a luminometer."}, "YY1 promoter [4]": {"tested_on": "YY1 promoter", "experiment": "YY1 promoter-luciferase reporter (YY1-LUC) in MLg2908 cells", "assay_type": "cell-based, mouse", "details": "YY1-Luc-transfected MLg2908 cells", "procedure": "as §2, with “The data are presented with standard errors derived from at least three independent experiments performed in triplicate. *p<0.05 and **p<0.01 by the Student's t-test.” left out\n(§6) FIGS. 9A and 9B are immunoblots of human WI-38 cells (FIG. 9A) and mouse MLg2908 cells (FIG. 9B) treated with TNF-α. […] FIGS. 9C and 9D are graphs showing the relative fold induction of YY-1 mRNA expression, detected by quantitative PCR, in WI-38 cells (FIG. 9C) and MLg2908 cells (FIG. 9D) treated with TGF-β. […] Relative light units (RLU) were measured with a luminometer. […]"}, "YY1 promoter [5]": {"tested_on": "YY1 promoter", "experiment": "YY1 promoter-luciferase reporter (YY1-LUC) in MRC5 cells", "assay_type": "cell-based, human", "details": "YY1-LUC-transfected MRC5 cells, 24 hours", "procedure": "as §4, §5"}, "YY1 expression [6]": {"tested_on": "YY1 expression", "experiment": "YY1 expression in stimulated MLg2908 lung fibroblasts (immunoblot, quantitative PCR)", "assay_type": "cell-based, mouse", "details": "MLg2908 cells; for YY1 transcript levels: quantitative PCR; for YY1 expression: serum-free DMEM, 10 ng/ml cytokine or 40 μg/ml silica, immunoblot", "procedure": "as §2\nas §3, with “The data are presented with standard errors derived from at least three independent experiments performed in triplicate. *p<0.05, **p<0.01, and ***p<0.001 by the Student's t-test.” left out\nTotal RNA from lung tissue and lung fibroblasts was extracted using TRIzol® reagent (Invitrogen). […] Quantitative PCR was performed using an iQ5 Biorad device. Data were analyzed by the 2^−Δ(Δ/CT^) method and normalized to the expression of the GAPDH housekeeping gene.\nCells or lung tissues were solubilized in lysis buffer (50 mM Tris/HCl (pH 8.0), 150 mM NaCl, 0.1% SDS, 0.5% sodium deoxycholate, 0.02% Na3N, 1% Nonidet P40, 1 mM PMSF, and 2 μg/ml aprotinin). Protein concentrations were determined by a BCA assay. […]"}, "YY1 promoter [7]": {"tested_on": "YY1 promoter", "experiment": "YY1 promoter-luciferase reporter (YY1-LUC) in WI-38 cells", "assay_type": "cell-based, human", "details": "YY1-Luc-transfected WI-38 cells", "procedure": "as §2, with “The data are presented with standard errors derived from at least three independent experiments performed in triplicate. *p<0.05 and **p<0.01 by the Student's t-test.” left out\nas §6"}, "YY1 expression [8]": {"tested_on": "YY1 expression", "experiment": "YY1 western blot in IC-21 alveolar macrophages", "assay_type": "cell-based", "details": "TNF-α 10 ng/ml or silica 20 μg/ml, two days", "procedure": "FIG. 11 is a western blot of unstimulated (“resting”) IC-21 alveolar macrophages or IC-21 cells stimulated with TNF-α (10 ng/ml) or silica (20 μg/ml). After two days, the cells were harvested and YY1 expression was determined using anti-YY1 and anti-GAPDH antibodies.\nIn addition to the indirect effects of lung inflammation, crystalline silica can activate cells directly through distinct molecular pathways (Hornung et al., “Silica Crystals and Aluminum Salts Activate the NALP3 Inflammasome Through Phagosomal Destabilization,” Nat. Immunol. 9(8):847-56 (2008); Dostert et al., “Innate Immune Activation Through Nalp3 Inflammasome Sensing of Asbestos and Silica,” Science 320(5876):674-77 (2008), each of which is hereby incorporated by reference in its entirety). Therefore, whether silica particles directly regulate YY1 expression in fibroblasts was tested by incubating cells for up to 8 hours in vitro with a fixed concentration of silica."}, "[9]": {"details": "serum-free DMEM, 10 ng/ml cytokine or 40 μg/ml silica, immunoblot"}}, "note": "Entries after “also recorded” stand apart in the source; their conditions may differ.", "data": [{"compound": "CC(C)(C)c1ccc(S(=O)(=O)/C=C/C#N)cc1", "note": "[Bay11-7085]", "values": [{"measurement": "YY1 expression", "setting": "YY1 expression [1]", "value": "abolished"}]}, {"compound": "[N]=O", "note": "[Nitric oxide]", "values": [{"measurement": "YY1 expression", "setting": "human tumor cells", "value": "inhibit"}, {"measurement": "YY1 expression", "setting": "lung fibroblasts", "value": "inhibit"}]}, {"compound": "IL-1β: cytokine used to treat WI-38 cells", "values": [{"measurement": "YY1 expression", "setting": "YY1 expression [2]; Day 1 and Day 2, immunoblot", "value": "upregulated"}]}, {"compound": "Rituximab: anti-CD20 antibody used for treating B cell non-Hodgkin's lymphoma", "values": [{"measurement": "NF-κB expression", "setting": "B cells", "value": "diminished"}, {"measurement": "YY1 expression", "setting": "B cells", "value": "diminished"}]}, {"compound": "TGF-β: profibrotic cytokine used to stimulate lung fibroblasts", "values": [{"measurement": "YY1 expression", "setting": "YY1 expression [3]", "value": "up-regulated"}, {"measurement": "YY1 promoter activity", "setting": "YY1 promoter [4]", "value": "significantly increased"}, {"measurement": "YY1 transcript levels", "setting": "YY1 expression [2]", "value": "upregulated"}, {"measurement": "YY1 expression", "setting": "YY1 expression [2]; [9]", "value": "upregulated"}, {"measurement": "YY1-LUC activity", "setting": "YY1 promoter [5]", "value": "up-regulated"}, {"measurement": "YY1 transcript levels", "setting": "YY1 expression [6]", "value": "upregulated"}, {"measurement": "YY1 expression", "setting": "YY1 expression [6]", "value": "upregulated"}, {"measurement": "YY1 promoter activity", "setting": "YY1 promoter [7]", "value": "significantly increased"}]}, {"compound": "TNF-α", "values": [{"measurement": "YY1 expression", "setting": "YY1 expression [8]", "value": "neither silica nor TNF-α affected; also recorded: slightly decreased"}, {"measurement": "YY1 promoter activity", "setting": "YY1 promoter [4]", "value": "upregulated"}, {"measurement": "YY1 transcript levels", "setting": "YY1 expression [2]", "value": "upregulated"}, {"measurement": "YY1 expression", "setting": "YY1 expression [2]; [9]", "value": "increased"}, {"measurement": "YY1 transcript levels", "setting": "YY1 expression [6]", "value": "upregulated"}, {"measurement": "YY1 expression", "setting": "YY1 expression [6]", "value": "increased"}, {"measurement": "YY1 promoter activity", "setting": "YY1 promoter [7]", "value": "upregulated"}]}]}
